Biological target: T1, Lysosomal acid glucosylceramidase (Homo sapiens, UniProt P04062)
T1 sequence (P04062 whole entry): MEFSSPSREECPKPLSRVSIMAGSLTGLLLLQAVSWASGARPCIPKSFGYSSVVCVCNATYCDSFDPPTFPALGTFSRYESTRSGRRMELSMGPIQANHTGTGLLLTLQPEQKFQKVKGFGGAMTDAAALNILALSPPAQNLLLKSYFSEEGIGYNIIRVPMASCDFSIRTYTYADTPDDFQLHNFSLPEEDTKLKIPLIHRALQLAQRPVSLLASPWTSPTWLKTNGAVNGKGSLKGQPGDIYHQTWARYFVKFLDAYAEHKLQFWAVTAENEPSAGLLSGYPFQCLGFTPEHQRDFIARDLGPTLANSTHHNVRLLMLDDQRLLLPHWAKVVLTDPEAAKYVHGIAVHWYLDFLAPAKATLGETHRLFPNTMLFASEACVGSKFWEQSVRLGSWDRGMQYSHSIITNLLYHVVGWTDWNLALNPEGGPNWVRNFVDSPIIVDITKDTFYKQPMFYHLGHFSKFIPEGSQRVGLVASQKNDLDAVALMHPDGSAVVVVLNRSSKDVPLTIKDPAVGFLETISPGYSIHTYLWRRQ
Experiment: GC Enzyme Assay
Details: pH 5.9; 21 °C

SMILES	IC50	Ki
CN(c1ccc(C(=O)Nc2nccs2)cc1)S(=O)(=O)c1ccccc1	34.4 µM	23.4 µM
O=C(Nc1nccs1)c1ccc(NS(=O)(=O)c2ccc(Cl)cc2)cc1 [4-[(4-chlorobenzene)sulfonamido]-N-(1,3-thiazol-2-yl)benzamide]	1.29 µM	0.556 µM
